What was measured:
human SGLT2 = target: T1, human SGLT2 (Homo sapiens, UniProt P31639); test: selectivity for human SGLT2 compared to human SGLT1
T1 sequence (P31639 1-672): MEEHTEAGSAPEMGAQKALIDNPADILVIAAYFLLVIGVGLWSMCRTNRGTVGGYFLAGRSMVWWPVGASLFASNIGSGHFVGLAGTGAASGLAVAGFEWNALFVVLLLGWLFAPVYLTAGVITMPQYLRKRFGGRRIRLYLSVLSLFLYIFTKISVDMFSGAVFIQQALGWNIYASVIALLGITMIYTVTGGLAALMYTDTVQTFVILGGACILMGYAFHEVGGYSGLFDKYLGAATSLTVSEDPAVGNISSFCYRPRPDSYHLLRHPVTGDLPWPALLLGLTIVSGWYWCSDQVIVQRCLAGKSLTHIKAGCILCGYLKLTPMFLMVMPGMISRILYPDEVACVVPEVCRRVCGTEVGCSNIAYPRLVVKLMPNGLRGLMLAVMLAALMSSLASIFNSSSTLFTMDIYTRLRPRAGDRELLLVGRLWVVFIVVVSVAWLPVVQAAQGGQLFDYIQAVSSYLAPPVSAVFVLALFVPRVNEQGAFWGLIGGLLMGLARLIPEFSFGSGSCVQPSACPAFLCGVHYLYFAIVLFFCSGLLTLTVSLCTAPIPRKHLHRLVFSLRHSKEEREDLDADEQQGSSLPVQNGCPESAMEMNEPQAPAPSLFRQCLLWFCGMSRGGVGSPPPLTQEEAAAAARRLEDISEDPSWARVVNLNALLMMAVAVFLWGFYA

[1] = tested on: healthy purpose-bred cats; test: urinary glucose excretion in healthy cats after capsule dosing (studies 1 and 2); type: in vivo, cat
healthy cats = test: 21-day high-dose study in healthy cats (study 3); type: in vivo, cat; conditions: 15 mg kg^−1 bid (30 mg kg^−1 day^−1) for 21 days
Text: All cats regained weight when the dosing ended. Because diabetic cats are often presented as a result of weight loss, the degree of […] would clearly be adverse and incompatible with treatment.

[2] = tested on: client-owned cats diagnosed with diabetes mellitus; test: field effectiveness study in client-owned diabetic cats; type: in vivo, cat; parameters: mean serum glucose: unit: mg/dL
Method: In a field effectiveness study, client-owned cats that had been diagnosed with diabetes mellitus based on: i) two separate fasting (≥6 h) blood glucose measurements>250 mg dL^−1; ii) glucosuria; iii) fructosamine>450 μmol L^−1 (subsequently changed to >360 μmol L^−1 due to a change in the testing laboratory methodology), and iv) one or more of the following: polyuria/polydipsia, polyphagia and/or weight loss (documented in the cat's medical records) were enrolled. Cats with suspected diabetes mellitus were evaluated during visit 1 (within 7 days prior to day 0). […] Cats were prescribed a diet for diabetic animals (Purina DM, either dry or wet variety). Cats were returned to the clinic for evaluation of glycemic control during visits 3 (day 14±3), 4 (day 28±3), and 5 (day 56±3). The treatment period was from visit 2 (day 0) through visit 5 (day 56±3). A cat could have been brought back to the clinic at any time for unscheduled visits if such visits were determined to be necessary by the owner or investigator. Eight-hour blood glucose curves (blood samples collected every 2 h±15 min for 8 h) were conducted at every visit starting with visit 2 (day 0) and blood glucose was measured using an AlphaTRAK 2 glucometer (Abbott Laboratories). Blood samples for hematology and serum chemistry were collected at screening and during each scheduled visit after initiation of dosing. A central laboratory was used to evaluate all clinical pathology samples (blood, serum, and urine) that are not analyzed in the clinic for blood glucose curves.
Serum chemistries included assessment of fructosamine. […] To accommodate the change in reference range, data were harmonized by expression as a percentage of the upper limit of normal and log-transformed percentages were analyzed by repeated measures ANCOVA with an unstructured covariance and visit as a fixed effect. The upper limit of normal for the testing laboratory for fasting serum glucose was 155 mg dL^−1. The data below were tabulated after 32 cats completed the day 56 visit.
Each cat was classified as having achieved (or not achieved) glycemic control on Day 56±3 (success/failure). Treatment success was defined as improvement of at least one blood glucose variable (BG mean<250 mg dL^−1; or fructosamine<450 μmol/L or <360 μmol/L, depending on the assay reference range at the time of the analysis), and the veterinarian's assessment of adequate glycemic control at the final evaluation. All cats that remained on-study to V5 were considered treatment successes. Of the 8 cats that were considered treatment failures, 6 cats were removed from the study following an SAE, 1 cat was removed at the sponsor's request, and 1 cat was removed due to the use of a study-proscribed medication to treat an AE. Table 3 also tallies the cats achieving a fructosamine concentration less than the upper limit of normal (356 μmol L^−1 initially and 275 μmol L^−1 subsequently).
Responsibility for assessing clinical signs of diabetes mellitus was divided between owners and treating veterinarians. Weight was recorded at each visit by the veterinarian, and the signs of polydipsia, polyuria and polyphagia were recorded at each visit by the owner, using a four-point (0 to 3) integer score in which low scores represented favorable ratings.
In addition to providing a measure of the status of the cat as a function of time, the quantitative assessments were used to produce a binary outcome of success or failure at study completion. To score as a success by weight, the weight at Visit 5 was to exceed the weight at Visit 2 (treatment initiation). To score as success by the other signs the owner score at visit 5 was to be less than the owner score at Visit 2.
Glucose curves were constructed by glucometer measurement of blood sampled at hours 0, 2, 4, 6 and 8 post-dose. […]

[3] = by visit, non-parametric test highly significant

OC[C@H]1O[C@@H](c2ccc(Cl)c(Cc3ccc(OCCOC4CC4)cc3)c2)[C@H](O)[C@@H](O)[C@@H]1O [bexagliflozin, (2S,3R,4R,5S,6R)-2-(4-chloro-3-(4-(2-cyclopropoxyethoxy)benzyl)phenyl)-6-(hydroxymethyl)tetrahydro-2H-pyran-3,4,5-triol]
selectivity for human SGLT2 compared to human SGLT1 (human SGLT2): 2400 fold | doses with undesired effects attributed to SGLT1 inhibition, multiple of doses producing the maximum pharmacodynamic effect ([1]; healthy cats): 5 to 10 times | loose stools and/or diarrhea ([1]; healthy cats exposed to the higher quantities): dose-dependent increase in the severity of loose stools and/or diarrhea | dose at which the maximum glucosuria was observed ([1]; healthy cats, gelatin capsules, urinary glucose excretion over 24 h after dosing): approximately 3 mg kg^−1 | body weight (healthy cats): cats lost weight throughout the study | treatment effect on the gain in body mass per cat ([2]; baseline to week 8, p<0.0001): highly significant | cats that either maintained or increased their weight ([2]; by day 56): 82% | mean owner scores for polydipsia [2, 3]: declined | mean owner scores for polyuria [2, 3]: declined | mean owner scores for polyphagia ([2]; by visit, non-parametric test significant): declined | weight of case 5 at study end ([2]; case 5, decreased from 5.4 kg): 5.1 kg | treatment outcome of cats with IGF-1 above the upper limit of normal (92 nmol/L) ([2]; cases 7, 28 and 30, V5): All three cases were considered treatment successes | symptomatic hypoglycemia ([2]; diabetic cats, field study): None of the cats exhibited a symptomatic hypoglycemia | Veterinarian Glycemic Control Criteria Met ([2]; individual cats, V5): Yes | Mean BG Criteria Met ([2]; individual cats, V5, BG mean <250 mg dL^−1): Yes | cats removed from the study following an SAE ([2]; of 40 cats enrolled): 6 cats | Any Success, Col Sum (number of cats) ([2]; of 40 enrolled cats): 31 | Non-Weight Success, Col Sum (number of cats) ([2]; of 40 enrolled cats): 30 | Polydipsia Success, Col Sum (number of cats) ([2]; of 40 enrolled cats): 23 | Polyphagia Success, Col Sum (number of cats) ([2]; of 40 enrolled cats): 17 | Polyuria Success, Col Sum (number of cats) ([2]; of 40 enrolled cats): 24 | Weight Success, Col Sum (number of cats) ([2]; of 40 enrolled cats): 22 | cats achieving a fructosamine concentration below the upper limit of normal ([2]; of the 32 cats completing the study): 26 cats | average cat weight ([2]; over the course of the study): increased | cats considered treatment successes ([2]; thirty-two of the 40 cats enrolled, Day 56±3): 80% | fructosamine of cats with elevated IGF-1 ([2]; three cats with elevated serum IGF-1): achieved a normal fructosamine concentration | mean serum β-hydroxybutyrate concentration ([2]; week 8, 95% CI 1.40, 2.20, upper limit of normal 1.9 mg dL^−1): 1.76 mg/dL | mean serum fructosamine, % of the upper limit of normal ([2]; week 8, 95% CI 80.0%, […]): 86.7% | mean serum glucose ([2]; week 8, 95% CI 127, 163): 144 | mean of the five blood glucose determinations ([2]; week 8, in-clinic blood glucose curve, 95% CI 102.8, 128.4): 114.9 mg/dL

Reference: patent publication US12274689B2, “Compound for the management of feline diabetes” (INCREVET, INC., priority 2019, dated 2025)
